Experimental data taken from patent publication US20040228868A1, “Apo-2L receptor agonist and CPT-11 synergism” (Genentech, Inc., priority 1999, published 2004).

System: COLO205 colon carcinoma cells
Assay: COLO205 colon carcinoma xenograft tumor growth in athymic nude mice (Example 1)
Type: in vivo, human
Settings: Apo-2L 30 mg/kg/day days 0-4 and 7-11, CPT-11 80 mg/kg/day days 0, 4, 8; for animals in which tumor growth resumed several days after the treatment period: of 9 mice per group
Experimental: The colon carcinoma cell line COLO205 (available from NCI) were grown and maintained according to the supplier's methods. Briefly, COLO205 cells were cultured in high glucose DMEM/F12 (50:50) media containing 10% fetal bovine serum and 2.0 mM-L-Glutamine. […] Cell-paste containing recombinant human soluble Apo-2L was extracted with a buffer containing 0.1M Tris/0.2M NaCl/50 mM EDTA, pH 8.0. The extract was precipitated by 40% ammonium sulfate. […] Purity was determined by sodium-dodecyl sulfate (SDS)-polyacrylamide gel electrophoresis and silver-nitrate or coomassie-blue staining, by amino acid sequence analysis, and by size-exclusion on high performance liquid chromatography (HPLC). CPT-11 (Camptosar®) was obtained from Pharmacia & Upjohn.
Athymic nude mice (Jackson Laboratories) were injected subcutaneously with 5 million COLO205 colon carcinoma cells and the tumors allowed to grow to about 120 mm^3. Tumor-bearing mice were randomized into 4 groups at 9 mice per group and treated with either vehicle (20 mM Tris, 8% Trehalose, 0.01 Tween-20, pH 7.5), Apo-2L (30 mg/kg/day on days 0-4 and 7-11), or CPT-11 (80 mg/kg/day on days 0, 4, and 8), or a combination of Apo-2L (30 mg/kg/day on days 0-4 and 7-11) plus CPT-11 (80 mg/kg/day on days 0, 4, and 8). Tumor volumes were determined at the indicated days over 34 days.

CCc1c2c(nc3ccc(OC(=O)N4CCC(N5CCCCC5)CC4)cc13)-c1cc3c(c(=O)n1C2)COC(=O)[C@]3(O)CC.Cl.O.O.O [CPT-11, (4S)-4,11-diethyl-4-hydroxy-9-[(4-piperidino-piperidino)carbonyloxyl]-1H-pyrano[3′,4′:6,7]indolizino[1,2-b]quinoline-3,14(4H,12H)dione hydrochloride trihydrate]
animals in which tumor growth resumed several days after the treatment period: 9 animals

Apo-2L: recombinant human soluble Apo-2L, extracellular portion amino acids 114-281, prepared in E. coli
animals in which tumor growth resumed several days after the treatment period: 9 animals
effect on tumor growth (tumor volume, FIG. 1) (s.c. COLO205 tumors about 120 mm^3, 9 mice per group, followed 34 days): suppressed tumor growth during the treatment period
